Like-named read-outs stand apart in the source and are kept apart here.

The text below walks through data of patent US12516016B2, “GPX4 inhibitors, pharmaceutical compositions thereof, and their use for treating GPX4-mediated diseases” (EUBULUS BIOTHERAPEUTICS (HONG KONG) LIMITED, priority 2020, dated 2026).

The assay deals with hepatocellular carcinoma cell line Hub-7. Kind of assay: Cell proliferation assay (CELL-TITER GLO cell viability). Format: cell-based. To be noted: Hub-7 cells, 24 h incubation. In short, it runs like this: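 […] cells (4,000/well) seeded overnight, then exposed 24 h to compound from 10 μM in 3-fold serial dilutions. Viability read by CELL-TITER GLO luminescence; EC50 values derived.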

Where [1] appears, read: 24 h, read-out: Inhibition of Cell Proliferation EC50.

On to `C#CC(=O)N(c1ccc(O)cc1)C(C(=O)NCc1ccccc1)c1cccc(N)c1` (stereo not drawn) [A45, N-(1-(3-Aminophenyl)-2-(benzylamino)-2-oxoethyl)-N-(4-hydroxyphenyl)-propiolamide], for which the EC50 under setting [1] lay in the range of 2000 to 10000 nM.
Regarding `COc1ccc(N(C(=O)CCl)C(C(=O)NCCc2ccccc2)c2cccs2)cc1Cl` (stereo not drawn) [ML-162, reference compound], the EC50 is, setting by setting: (control, read-out: EC50) 138 nM; (read-out: Inhibition of Cell Proliferation EC50) 100 to 500 nM.
Regarding `CC#CC(=O)N(c1ccc(Cl)c(Cl)c1)C(C(=O)NCc1ccccc1)c1ccccc1` (stereo not drawn) [A132, N-(2-(Benzylamino)-2-oxo-1-phenylethyl)-N-(3,4-dichlorophenyl)but-2-ynamide], under setting [1], the EC50 was more than 10000 nM.
For the molecule `C#CC(=O)N(c1cccc2cnn(C)c12)C(C(=O)NCc1ccccc1)c1ccccc1` (stereo not drawn) [A160, N-(2-(Benzylamino)-2-oxo-1-phenylethyl)-N-(1-methyl-1H-indazol-7-yl)propiolamide], the EC50 under setting [1] is not above 100 nM.
Same read-out and setting: the figure for `C#CC(=O)N(c1cccc(O)c1)C(C(=O)NCc1ccccc1)c1ccc(N)cc1` (stereo not drawn) [A58, N-(1-(4-Aminophenyl)-2-(benzylamino)-2-oxoethyl)-N-(3-hydroxyphenyl)-propiolamide] is 2000 to 10000 nM; for `C#CC(=O)N(c1ccc(C(=O)OC)cc1)C(C(=O)NCc1ccccc1)c1ccc(N)cc1` (stereo not drawn) [A69, Methyl 4-(N-(1-(4-aminophenyl)-2-(benzylamino)-2-oxoethyl)propiolamido)-benzoate] it is not above 100 nM.
Still for that read-out and setting: the figure for `C#CC(=O)N(c1cc(Cl)ccc1I)C(C(=O)NCc1ccccc1)c1ccccc1` (stereo not drawn) [A91, N-(2-(Benzylamino)-2-oxo-1-phenylethyl)-N-(5-chloro-2-iodophenyl)-propiolamide] is not above 100 nM.
On the same count and under the same terms, the figure for `C#CC(=O)N(c1cccc(Cl)c1)C(C(=O)NCC1CC1)c1ccccc1` (stereo not drawn) [A142, N-(3-Chlorophenyl)-N-(2-((cyclopropylmethyl)amino)-2-oxo-1-phenylethyl)-propiolamide] is not above 100 nM.
As for `C#CC(=O)N(c1ccc2[nH]ncc2c1)C1(C(=O)NCc2ccccc2)CCOCC1` [A150, 4-(N-(1H-Indazol-5-yl)propiolamido)-N-benzyltetrahydro-2H-pyran-4-carboxamide], the EC50 under setting [1] was 100 to 500 nM.
Still for that read-out and setting: in the case of `C#CC(=O)N(c1cccc(OC)c1)C(C(=O)NCc1ccccc1)c1ccc(N)cc1` (stereo not drawn) [A61, N-(1-(4-Aminophenyl)-2-(benzylamino)-2-oxoethyl)-N-(3-methoxyphenyl)-propiolamide] it was not above 100 nM; in that of `C#CC(=O)N(c1cccc(OC)c1)C(C(=O)NC(C)(C)C)c1ccc(N)cc1` (stereo not drawn) [A7, N-(1-(4-Aminophenyl)-2-(tert-butylamino)-2-oxoethyl)-N-(3-methoxyphenyl)-propiolamide], 100 to 500 nM; in that of `C#CC(=O)N(c1ccc2c(ccn2C)c1)C1(C(=O)NCc2ccccc2)CCOCC1` [A153, N-Benzyl-4-(N-(1-methyl-1H-indol-5-yl)propiolamido)tetrahydro-2H-pyran-4-carboxamide], not above 100 nM.
`C=CC(=O)N(CCc1ccccc1)C1(C(=O)NCc2ccccc2)CCOCC1` [B6, N-Benzyl-4-(N-phenethylacrylamido)tetrahydro-2H-pyran-4-carboxamide]: the EC50 under setting [1] is more than 10000 nM.
Still for that read-out and setting: in the case of `C#CC(=O)N(c1ccc(S(C)(=O)=O)cc1)C(C(=O)NC(C)(C)C)c1ccc(N)cc1` (stereo not drawn) [A15, N-(1-(4-Aminophenyl)-2-(tert-butylamino)-2-oxoethyl)-N-(4-(methylsulfonyl)-phenyl)propiolamide] it was 2000 to 10000 nM; in that of `C#CC(=O)N(c1ccccc1N1CCOCC1)C1(C(=O)NCc2ccccc2)CCOCC1` [A139, N-Benzyl-4-(N-(2-morpholinophenyl)propiolamido)tetrahydro-2H-pyran-4-carboxamide], not above 100 nM.
On the same count and under the same terms, the figure for `C#CC(=O)N(c1ccc(OC)c(Cl)c1)C(C(=O)NCc1ccccc1)c1ccc(N)cc1` (stereo not drawn) [A53, N-(1-(4-Aminophenyl)-2-(benzylamino)-2-oxoethyl)-N-(3-chloro-4-methoxy-phenyl)propiolamide] is not above 100 nM; for `C#CC(=O)N(c1cccc(-c2cc[nH]n2)c1)C1(C(=O)NCc2ccccc2)CCOCC1` [A135, 4-(N-(3-(1H-Pyrazol-3-yl)phenyl)propiolamido)-N-benzyltetrahydro-2H-pyran-4-carboxamide] it is 100 to 500 nM.
Turning to `C#CC(=O)N(c1cccc(C(=O)OC)c1)C(C(=O)NCc1ccccc1)c1ccc(N)cc1` (stereo not drawn) [A54, Methyl 3-(N-(1-(4-aminophenyl)-2-(benzylamino)-2-oxoethyl)propiolamido)-benzoate], the EC50 under setting [1] is not above 100 nM.
Still for that read-out and setting: the figure for `C#CC(=O)N(c1cccc(Cl)c1)C1(C(=O)NCS(=O)(=O)c2ccc(C)cc2)CCOCC1` [A159, 4-(N-(3-Chlorophenyl)propiolamido)-N-(tosylmethyl)tetrahydro-2H-pyran-4-carboxamide] is 500 to 2000 nM; for `C#CC(=O)N(c1cccc2nonc12)C(C(=O)NCc1ccccc1)c1ccccc1` (stereo not drawn) [A106, N-(Benzo[c][1,2,5]oxadiazol-4-yl)-N-(2-(benzylamino)-2-oxo-1-phenylethyl)-propiolamide] it is 100 to 500 nM.
Still for that read-out and setting: the figure for `O=C(NCCc1ccccc1)C(c1ccc([N+](=O)[O-])cc1)N(C(=O)CCl)c1cccc(Cl)c1` (stereo not drawn) [C5, 2-chloro-N-(3-chlorophenyl)-N-(1-(4-nitrophenyl)-2-oxo-2-(phenethylamino)ethyl)acetamide] is 100 to 500 nM; for `C#CC(=O)N(c1cccc(Cl)c1)C(C(=O)NCc1ccccc1)C1CC1` (stereo not drawn) [A72, N-(2-(benzylamino)-1-cyclopropyl-2-oxoethyl)-N-(3-chlorophenyl)propiolamide] it is 100 to 500 nM; for `COc1ccc(N(C(=O)CCl)C2(C(=O)NCCc3ccccc3)CCC(F)(F)CC2)cc1Cl` [C20, 1-(2-Chloro-N-(3-chloro-4-methoxyphenyl)acetamido)-4,4-difluoro-N-phenethyl-cyclohexane-1-carboxamide] it is 100 to 500 nM.
On the same count and under the same terms, the figure for `CC(=O)Nc1cccc(N(C(=O)CCl)C(C(=O)NCCc2ccccc2)c2ccc([N+](=O)[O-])cc2)c1` (stereo not drawn) [C11, N-(3-Acetamidophenyl)-2-chloro-N-(1-(4-nitrophenyl)-2-oxo-2-(phenethyl-amino)ethyl)acetamide] is 2000 to 10000 nM.
Take `C#CC(=O)N(c1cccc(Cl)c1)C1(C(=O)NCc2ccccc2)CCCOC1` (stereo not drawn) [A174, N-Benzyl-3-(N-(3-chlorophenyl)propiolamido)tetrahydro-2H-pyran-3-carboxamide]: the EC50 under setting [1] is not above 100 nM.
Turning to `C#CC(=O)N(c1cc(Cl)ccc1F)C(C(=O)NCc1ccccc1)c1ccc(N)cc1` (stereo not drawn) [A57, N-(1-(4-Aminophenyl)-2-(benzylamino)-2-oxoethyl)-N-(5-chloro-2-fluoro-phenyl)propiolamide], the EC50 under setting [1] was not above 100 nM.
Same read-out and setting: in the case of `C#CC(=O)N(Cc1cccc(O)c1)C1(C(=O)NCc2ccccc2)CCCC(C(=O)O)C1` (stereo not drawn) [A170, 3-(Benzylcarbamoyl)-3-(N-(3-hydroxybenzyl)propiolamido)cyclohexane-1-carboxylic acid] it was more than 10000 nM.
Same read-out and setting: the figure for `C#CC(=O)N(Cc1cc[nH]n1)C1(C(=O)NCc2ccccc2)CCOCC1` [A137, 4-(N-((1H-Pyrazol-3-yl)methyl)propiolamido)-N-benzyltetrahydro-2H-pyran-4-carboxamide] is more than 10000 nM; for `C#CC(=O)N(c1cccc(C#N)c1)C(C(=O)NCc1ccccc1)c1cccc(N)c1` (stereo not drawn) [A38, N-(1-(3-Aminophenyl)-2-(benzylamino)-2-oxoethyl)-N-(3-cyanophenyl)-propiolamide] it is 100 to 500 nM.
